Patent US20060193772A1, “Drugs for treating cancer” (priority 2003, published 2006)

System: multiple myeloma cell line, LP-1 cells
Test: LP-1 viable cell number (WST-1), doxorubicin and KM 1468 administration methods (Example 3)
Assay type: cell-based
Conditions: 1 μmol/L doxorubicin, 1 μg/mL KM 1468, cells only = 100%
Procedure: Multiple myeloma cell line, LP-1 cells (DSMZ ACC41) were seeded in a 96-well culture plate in an amount of 100 μL/well (10,000 cells). Doxorubicin and anti-IGF monoclonal antibody […] were added, and the mixture was cultured at 37° C. for 3 days. The addition of doxorubicin and KM 1468 to the medium was conducted by the following three methods.
Method 1: Cells were cultured in 150 μL of a medium in which doxorubicin was solely added on day 1, and in 200 μL of a medium in which doxorubicin and KM 1468 were added on days 2 and 3.
Method 2: Cells were cultured in 150 μL of a medium in which KM 1468 were solely added on day 1, and in 200 μL of a medium in which doxorubicin and KM 1468 were added on days 2 and 3.
Method 3: Cells were cultured in a medium comprising doxorubicin and KM 1468 (an amount of the medium is 150 μL on day 1 and 200 μL each on days 2 and 3) for three days.
In all of the foregoing methods, doxorubicin and KM 1468 were added so that the final concentrations of doxorubicin and KM 1468 became 1 μmol/L and 1 μg/mL, respectively.
After the culturing, cell proliferation reagent WST-1 (manufactured by Roche) was added in an amount of 20 μL/well, and the mixture was cultured at 37° C. for from 2 to 3 hours. OD450 was measured with microplate reader M-SPmax 250 (manufactured by Molecular Devices). The number of viable cells after the treatment with the agent was expressed as a relative value when OD450 in which cells were solely added was regarded as 100%.

COc1cccc2c1C(=O)c1c(O)c3c(c(O)c1C2=O)C[C@@](O)(C(=O)CO)C[C@@H]3O[C@H]1C[C@H](N)[C@H](O)[C@H](C)O1 [Doxorubicin]
Relative value of cell number (Method 1 group: doxorubicin on day 1, doxorubicin and KM 1468 on days 2 and 3): 40%
Relative value of cell number (Method 2 group: KM 1468 on day 1, doxorubicin and KM 1468 on days 2 and 3): 57%
Relative value of cell number (Method 3 group: doxorubicin and KM 1468 for three days): 44%
